Results taken from patent publication US20170327509A1, “TWO-PHOTON ABSORBING FLUOROPHORES AND METHOD FOR CELLULAR IMAGING USING THE SAME” (POSTECH ACADEMY-INDUSTRY FOUNDATION, priority 2014, published 2017).
Like-named read-outs stand apart in the source and are kept apart here.

Experiments:
[1] = Absorbance spectra / molar extinction coefficients at the maximum absorption wavelength; type: physicochemical; details: water (containing 1% DMSO), acetonitrile, and dichloromethane; FIG. 33
Procedure: Specifically, to confirm the absorbing properties of two-photon absorbing fluorophores, the inventors measured absorbance spectra for Compounds 1 to 9 at the concentration of 10 μM in HEPES buffer (containing 1% DMSO, pH 7.4) and water (containing 1% DMSO), contained in quartz cells with a light path length of 1 cm, and the results are respectively shown in the left and right graphs of FIG. 2. Absorbance spectra for Compounds 1 to 9 at the concentration of 10 μM in ethanol and acetonitrile were measured, and the results are respectively shown in the left and right graphs of FIG. 3. Absorbance spectra for Compounds 1 to 9 at the concentration of 10 μM in dimethylformamide and dichloromethane were measured, and the results are respectively shown in the left and right graphs of FIG. 4. Absorbance spectra for Compounds 1 to 9 at the concentration of 10 μM in cyclohexane were measured, and the result is shown in FIG. 5. Absorbance spectra for Compounds 10 to 12 at the concentration of 10 μM in water (a, containing 1% DMSO), acetonitrile (b), and dichloromethane (c) were measured, and the results are shown in FIG. 31. The absorbance spectra were measured using a HP 8453 UV/Vis spectrophotometer. […]

[2] = Fluorescence quantum yield (reference rhodamine B); type: physicochemical; details: water (containing 1% DMSO); FIGS. 15 and 34
Procedure: Further, fluorescence quantum yields of Compounds 1 to 9 in dichloromethane, acetonitrile, and water (containing 1% DMSO) were measured, and the results are shown in FIG. 15. Fluorescence quantum yields of Compounds 10 to 12 in dichloromethane, acetonitrile, and water (containing 1% DMSO) were measured, and the results are shown in FIG. 34. As a reference compound, rhodamine B was used (fluorescence quantum yield, ΦF=0.6, measured in ethanol).

[3] = Two-photon absorption cross-section by two-photon induced fluorescence method; type: physicochemical; details: water (containing 1% DMSO); excitation 800 nm, 820 nm, 840 nm; FIG. 35
Excerpt: Specifically, to confirm the fluorescence properties of the two-photon absorbing fluorophores under two-photon excitation, the inventors measured fluorescence spectra by two-photon excitation using a titanium:sapphire oscillator (Ti:sapphire oscillator), which was pumped by a frequency-doubled neodimium:yttrium orthovanadate laser (Nd:YVO4 laser; Verdi, Coherent) with an output power of 5.0 W. Output pulse energy was 40 nJ, and repetition rate was 380 kHz.
In addition, two-photon absorption cross-section values of each of Compounds 1 and 5 to 7 in dichloromethane solution, acetonitrile solution, and water (containing 1% DMSO) were measured, and the results are shown in FIGS. 28 and 29. Two-photon absorption cross-section values of each of Compounds 10 to 12 in a dichloromethane solution, an acetonitrile solution, and water (containing 1% DMSO) were measured, and the results are shown in FIG. 35. As a comparative compound, rhodamine B generally used as a fluorescent probe was used (two-photon absorption cross-section values, GM=300 (740 nm), 470 (760 nm) and 540 (780 nm), measured in an ethanol solution). Two-photon absorption cross-section values were measured by a two-photon induced fluorescence method (Fischer, A. et al. Applied Optics 1995, 34, 1989), 1 GM refers to 10^−50 cm^4 s photon^−1 molecule^−1.

[4] = Fluorescence spectra / fluorescence intensities in solution; type: physicochemical; details: 1 μM in water (containing 1% DMSO); excitation at the maximum absorption wavelength; FIG. 40
Procedure: 10. […] 11. […] 12. […] 32. All fluorescence spectra were measured at the […] (FIG. 14). The fluorescence spectra were measured using a Photon Technical International Fluorescence System.
13(a). […] 13 (b, left) and FIG. 13 (b, right). Referring to FIGS. 9 and 13, it can be confirmed that fluorescence intensities of the two-photon absorbing fluorophores (particularly, Compounds 2 to 8) of the present invention in HEPES buffer (containing 1% DMSO, pH 7.4) and water (containing 1% DMSO) are higher than those of the conventional acedan (Compound 1).
In addition, to compare the fluorescence intensities of the compounds in aqueous solution according to a structural change, fluorescence intensities of Compounds 1, 5, and 13 to 18 at the concentration of 1 μM in water (containing 1% DMSO) were compared, and the results are shown in FIG. 40. The fluorescence intensities were measured through excitation of each compound at the maximum absorption wavelength. […] It can be confirmed that, as the degrees of hydrogen bonding of water molecule to the nitrogen atom in Compounds 13 to 17 are reduced, the fluorescence intensities increase.

[5] = reference compound; measured in ethanol; cited from earlier work
[6] = comparative compound, ethanol solution, cited from earlier work

`CC(=O)c1ccc2cc(N3C4CCC3CC4)ccc2c1` gave a melting point of 118 to 120 °C.

Compound `CC(=O)c1ccc2cc(NC(C)C)ccc2c1` [Compound 3, 1-(6-(isopropylamino)naphthalen-2-yl)ethanone] has a melting point of 112 to 114 °C.

`CNc1ccc2cc(C(C)=O)ccc2c1` [Compound 4, 1-(6-(methylamino)naphthalen-2-yl)ethanone] gave a melting point of 182 °C.

Compound `CC(=O)c1ccc2cc(NC3CCC(O)CC3)ccc2c1` (centres unmarked) [Compound 5, 1-(6-(4-hydroxycyclohexylamino)naphthalen-2-yl)ethanone] has a melting point of 186 to 188 °C.

Compound `CC(=O)c1ccc2cc(N3CCOCC3)ccc2c1` [Compound 8, 1-(6-morpholinonaphthalen-2-yl)ethanone] has a melting point of 149 to 151 °C.

With `CC(=O)c1ccc2cc(N(C)C3CCC(O)CC3)ccc2c1` (centres unmarked) [Compound 9, 1-(6-((4-hydroxycyclohexyl)(methyl)amino)naphthalen-2-yl)ethanone] the melting point was 192 to 194 °C.

In the case of `O=C1c2cccc3c(NC4CCC(O)CC4)ccc(c23)C(=O)N1CCO` (centres unmarked) [Compound 10, 6-(4-hydroxycyclohexylamino)-2-(2-hydroxyethyl)-1H-benzo[de]isoquinoline-1,3(2H)-dione], the molar extinction coefficients [1] is reported as “higher than those of the conventional Compound 11 (Formula 11) and Compound 12 (Formula 12)”, the fluorescence quantum yield [2] is reported as “higher than those of the conventional Compounds 11 and 12” and the “two-photon absorption cross-section value” [3] is reported as “higher than those of the conventional Compounds 11 and 12”.

In the case of `CC(=O)c1ccc2cc(N3CCCC3)ccc2c1` [Compound 18], the fluorescence intensities [4] is reported as “increase of fluorescence intensity”.

In the case of `CCN(CC)c1ccc2c(-c3ccccc3C(=O)O)c3ccc(=[N+](CC)CC)cc-3oc2c1.[Cl-]` [rhodamine B], the “fluorescence quantum yield, ΦF” value [5] is given as 0.6, the “two-photon absorption cross-section value” ([6]; 740 nm) is given as 300 GM and the “two-photon absorption cross-section value” ([6]; 760 nm) is given as 470 GM. For the same compound, the “two-photon absorption cross-section value” ([6]; 780 nm) was 540 GM.
